Results reported in patent US8697739B2, “Bicyclic acetyl-CoA carboxylase inhibitors and uses thereof” (Novartis AG, priority 2010, dated 2014).
pIC50: −log10 of the molar value.

Target: T1, human acetyl-CoA carboxylase 2 (ACC2) (Homo sapiens, UniProt O00763)
T1 construct: The cDNA encoding amino acids 144 to 2458 of human acetyl-CoA carboxylase 2; made in house; host or cells: Sf9 insect cells (baculovirus, pFastBac1)
Test: Acetyl-CoA carboxylase enzyme assay (malonyl-CoA formation by LC/MS/MS)
Assay type: biochemical
Conditions: recombinant human ACC2 (aa 144-2458); read-out: IC50 ACC2
Procedure, shortened: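 Malonyl-CoA formation was read by LC/MS/MS MRM against a [13C3]-malonyl-CoA internal standard, after acetic acid quench. The enzyme was baculovirus/Sf9-expressed human ACC2 residues 144–2458, given 15 minutes room-temperature compound preincubation in HEPES pH 7.5 buffer with MgCl2, citrate and DTT. Substrate solution held 50 μM acetyl-CoA, 120 μM ATP and 2 mM KHCO3.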

T1 sequence (O00763 144-2458): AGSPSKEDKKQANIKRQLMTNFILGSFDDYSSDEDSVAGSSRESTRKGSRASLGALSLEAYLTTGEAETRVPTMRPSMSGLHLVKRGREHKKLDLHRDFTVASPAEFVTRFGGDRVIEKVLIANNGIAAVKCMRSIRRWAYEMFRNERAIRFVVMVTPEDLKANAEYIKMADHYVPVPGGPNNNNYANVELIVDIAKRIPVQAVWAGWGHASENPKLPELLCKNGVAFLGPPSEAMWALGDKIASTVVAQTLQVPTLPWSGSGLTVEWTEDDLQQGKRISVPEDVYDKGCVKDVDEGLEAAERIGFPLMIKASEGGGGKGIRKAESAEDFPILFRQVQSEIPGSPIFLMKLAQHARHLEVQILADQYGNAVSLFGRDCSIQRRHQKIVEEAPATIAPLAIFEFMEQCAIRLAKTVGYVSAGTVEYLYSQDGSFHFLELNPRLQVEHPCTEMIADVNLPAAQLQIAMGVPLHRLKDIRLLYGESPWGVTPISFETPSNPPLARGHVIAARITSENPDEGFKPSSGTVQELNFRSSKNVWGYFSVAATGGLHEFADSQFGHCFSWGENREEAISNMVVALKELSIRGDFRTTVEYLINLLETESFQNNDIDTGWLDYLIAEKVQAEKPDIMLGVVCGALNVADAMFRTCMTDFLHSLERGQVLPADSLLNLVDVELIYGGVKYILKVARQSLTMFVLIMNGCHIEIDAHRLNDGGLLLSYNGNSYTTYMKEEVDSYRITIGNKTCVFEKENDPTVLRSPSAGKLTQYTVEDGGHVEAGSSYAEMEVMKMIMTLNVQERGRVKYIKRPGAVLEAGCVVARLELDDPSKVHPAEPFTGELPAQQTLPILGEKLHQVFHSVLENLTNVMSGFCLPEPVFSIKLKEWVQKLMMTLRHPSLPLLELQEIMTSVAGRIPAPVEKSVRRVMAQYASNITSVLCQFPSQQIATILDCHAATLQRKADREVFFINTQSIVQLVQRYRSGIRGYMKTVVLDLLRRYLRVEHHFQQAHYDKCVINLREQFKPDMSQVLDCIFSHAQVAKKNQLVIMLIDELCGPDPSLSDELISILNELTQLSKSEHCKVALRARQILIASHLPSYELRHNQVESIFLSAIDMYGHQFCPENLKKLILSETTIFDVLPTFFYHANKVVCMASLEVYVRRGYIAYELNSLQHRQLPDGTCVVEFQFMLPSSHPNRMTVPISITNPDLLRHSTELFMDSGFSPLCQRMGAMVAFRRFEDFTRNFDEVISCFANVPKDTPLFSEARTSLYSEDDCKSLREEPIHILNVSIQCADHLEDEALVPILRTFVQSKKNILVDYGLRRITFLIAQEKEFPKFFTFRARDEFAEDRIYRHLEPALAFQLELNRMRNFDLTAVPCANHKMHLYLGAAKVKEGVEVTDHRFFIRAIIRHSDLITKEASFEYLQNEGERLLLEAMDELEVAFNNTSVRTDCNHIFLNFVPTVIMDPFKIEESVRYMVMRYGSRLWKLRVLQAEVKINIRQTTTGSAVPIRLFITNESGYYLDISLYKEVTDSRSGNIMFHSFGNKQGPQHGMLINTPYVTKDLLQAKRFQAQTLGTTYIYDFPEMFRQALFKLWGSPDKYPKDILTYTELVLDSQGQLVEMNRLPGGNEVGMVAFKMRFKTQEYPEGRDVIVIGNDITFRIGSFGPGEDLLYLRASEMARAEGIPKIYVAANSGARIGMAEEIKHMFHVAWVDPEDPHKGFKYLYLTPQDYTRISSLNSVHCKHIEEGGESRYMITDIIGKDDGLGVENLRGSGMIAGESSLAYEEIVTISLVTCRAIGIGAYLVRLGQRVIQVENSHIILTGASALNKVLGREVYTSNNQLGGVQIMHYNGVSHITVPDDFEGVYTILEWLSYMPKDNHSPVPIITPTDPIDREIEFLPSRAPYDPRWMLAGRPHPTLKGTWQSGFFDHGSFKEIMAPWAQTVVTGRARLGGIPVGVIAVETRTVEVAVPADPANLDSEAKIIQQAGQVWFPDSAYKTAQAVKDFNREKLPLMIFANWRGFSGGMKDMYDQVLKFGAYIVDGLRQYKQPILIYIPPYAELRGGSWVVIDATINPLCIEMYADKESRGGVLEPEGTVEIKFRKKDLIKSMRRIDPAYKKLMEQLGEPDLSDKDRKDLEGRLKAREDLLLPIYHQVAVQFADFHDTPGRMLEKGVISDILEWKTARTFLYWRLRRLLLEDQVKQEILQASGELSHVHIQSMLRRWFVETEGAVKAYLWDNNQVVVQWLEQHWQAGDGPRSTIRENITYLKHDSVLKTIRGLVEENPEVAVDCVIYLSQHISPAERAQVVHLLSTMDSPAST

Question: With C[C@@H](NC(=O)[C@H]1CC[C@H](NS(=O)(=O)c2cccc3nc(-c4ccccc4)cn23)CC1)c1ccc(F)cc1 [Example 65, (1r,4R)-N-((R)-1-(4-fluorophenyl)ethyl)-4-(2-phenylimidazo[1,2-a]pyridine-5-sulfonamido)cyclohexanecarboxamide] as the compound, how does the pIC50 read?
Answer: 6.83

Question: CC(NC(=O)[C@H]1CC[C@H](NS(=O)(=O)c2cnc3ccccc3c2)CC1)c1ccc(F)c(F)c1 (stereo partly drawn) [Example 66, (1r,4r)-N-(1-(3,4-difluorophenyl)ethyl)-4-(quinoline-3-sulfonamido)cyclohexanecarboxamide] was tested. Which pIC50 did it give?
Answer: 6.69

Question: With CC(NC(=O)[C@H]1CC[C@H](NS(=O)(=O)c2cnc3ccccc3c2)CC1)c1ccc(F)cc1F (stereo partly drawn) [Example 67, (1r,4r)-N-(1-(2,4-difluorophenyl)ethyl)-4-(quinoline-3-sulfonamido)cyclohexanecarboxamide] as the compound, how does the pIC50 read?
Answer: 6.62

Question: With COCCOc1ccc2cc(S(=O)(=O)N[C@H]3CC[C@H](C(=O)N[C@H](C)c4ccc(F)cc4)CC3)ccc2n1 [Example 68, (1r,4R)-N-((R)-1-(4-fluorophenyl)ethyl)-4-(2-(2-methoxyethoxy)quinoline-6-sulfonamido)cyclohexanecarboxamide] as the compound, how does the pIC50 read?
Answer: 7.15

Question: C[C@@H](NC(=O)[C@H]1CC[C@H](NS(=O)(=O)c2ccc3nc(OCCN(C)C)ccc3c2)CC1)c1ccc(F)cc1 [Example 69, (1r,4R)-4-(2-(2-(dimethylamino)ethoxy)quinoline-6-sulfonamido)-N-((R)-1-(4-fluorophenyl)ethyl)cyclohexanecarboxamide] was tested. Which pIC50 did it give?
Answer: 7.30

Question: With Cc1c(-c2ccccc2)nc2ccc(S(=O)(=O)N[C@H]3CC[C@H](C(=O)N[C@H](C)c4ccc(F)cc4)CC3)cn12 [Example 70, (1r,4R)-N-((R)-1-(4-fluorophenyl)ethyl)-4-(3-methyl-2-phenylimidazo[1,2-a]pyridine-6-sulfonamido)cyclohexanecarboxamide] as the compound, how does the pIC50 read?
Answer: 6.78

Question: How did the pIC50 turn out when C=Cc1ccc2cc(S(=O)(=O)N[C@H]3CC[C@H](C(=O)N[C@H](C)c4ccc(F)cc4)CC3)ccc2n1 [Example 71, (1r,4R)-N-((R)-1-(4-fluorophenyl)ethyl)-4-(2-vinylquinoline-6-sulfonamido)cyclohexanecarboxamide] was run?
Answer: 6.39

Question: With Cc1ccc2cc(S(=O)(=O)N[C@H]3CC[C@H](C(=O)N[C@H](C)c4ccc(F)cc4)CC3)ccc2n1 [Example 72, (1r,4R)-N-((R)-1-(4-fluorophenyl)ethyl)-4-(2-methylquinoline-6-sulfonamido)cyclohexanecarboxamide] as the compound, how does the pIC50 read?
Answer: 6.94

Question: CCOC(=O)COc1ccc2cc(S(=O)(=O)N[C@H]3CC[C@H](C(=O)N[C@H](C)c4ccc(F)cc4)CC3)ccc2n1 [Example 73, ethyl 2-(6-(N-((1R,4r)-4-((R)-1-(4-fluorophenyl)ethylcarbamoyl)cyclohexyl)sulfamoyl)quinolin-2-yloxy)acetate] was tested. Which pIC50 did it give?
Answer: 6.76

Question: How did the pIC50 turn out when CCc1ccc2cc(S(=O)(=O)N[C@H]3CC[C@H](C(=O)N[C@H](C)c4ccc(F)cc4)CC3)ccc2n1 [Example 74, (1r,4R)-4-(2-ethylquinoline-6-sulfonamido)-N-((R)-1-(4-fluorophenyl)ethyl)cyclohexanecarboxamide] was run?
Answer: 6.80

Question: How did the pIC50 turn out when Cc1ccccc1-c1nc2cc(S(=O)(=O)N[C@H]3CC[C@H](C(=O)N[C@H](C)c4ccc(F)cc4)CC3)cnc2s1 [Example 75, (1r,4R)-N-((R)-1-(4-fluorophenyl)ethyl)-4-(2-o-tolylthiazolo[5,4-b]pyridine-6-sulfonamido)cyclohexanecarboxamide] was run?
Answer: 7.02

Question: With Cc1ccccc1-c1nc2cc(S(=O)(=O)N[C@H]3CC[C@H](C(=O)N[C@H](C)c4ccc(F)cc4)CC3)cnc2o1 [Example 76, (1r,4R)-N-((R)-1-(4-fluorophenyl)ethyl)-4-(2-o-tolyloxazolo[5,4-b]pyridine-6-sulfonamido)cyclohexanecarboxamide] as the compound, how does the pIC50 read?
Answer: 6.23

Question: How did the pIC50 turn out when CCC1CCc2cc(S(=O)(=O)N[C@H]3CC[C@H](C(=O)N[C@H](C)c4ccc(F)cc4)CC3)ccc2N1 (stereo partly drawn) [Example 77, (1r,4R)-4-(2-ethyl-1,2,3,4-tetrahydroquinoline-6-sulfonamido)-N-((R)-1-(4-fluorophenyl)ethyl)cyclohexanecarboxamide] was run?
Answer: 7.30

Question: With C[C@@H](NC(=O)[C@H]1CC[C@H](NS(=O)(=O)c2ccc3nc(OCC(=O)O)ccc3c2)CC1)c1ccc(F)cc1 [Example 78, 2-(6-(N-((1R,4r)-4-((R)-1-(4-fluorophenyl)ethylcarbamoyl)cyclohexyl)sulfamoyl)quinolin-2-yloxy)acetic acid] as the compound, how does the pIC50 read?
Answer: 6.33

Question: With C[C@@H](NC(=O)[C@H]1CC[C@H](NS(=O)(=O)c2ccc3nc(-c4ccccc4)cn3c2)CC1)c1ccc(F)cc1 [Example 79, (1r,4R)-N-((R)-1-(4-fluorophenyl)ethyl)-4-(2-phenylimidazo[1,2-a]pyridine-6-sulfonamido)cyclohexanecarboxamide] as the compound, how does the pIC50 read?
Answer: 6.94

Question: How did the pIC50 turn out when C[C@@H](NC(=O)[C@H]1CC[C@H](NS(=O)(=O)c2ccc3nc(OC(C)(C)CO)ccc3c2)CC1)c1ccc(F)cc1 [Example 80, (1r,4R)-N-((R)-1-(4-fluorophenyl)ethyl)-4-(2-(1-hydroxy-2-methylpropan-2-yloxy)quinoline-6-sulfonamido)cyclohexanecarboxamide] was run?
Answer: 7.40

Question: C[C@@H](NC(=O)[C@H]1CC[C@H](NS(=O)(=O)c2ccc3nc(OCC(C)(C)O)ccc3c2)CC1)c1ccc(F)cc1 [Example 81, (1r,4R)-N-((R)-1-(4-fluorophenyl)ethyl)-4-(2-(2-hydroxy-2-methylpropoxy)quinoline-6-sulfonamido)cyclohexanecarboxamide] was tested. Which pIC50 did it give?
Answer: 7.02

Question: How did the pIC50 turn out when CCOc1ccc2cc(S(=O)(=O)N[C@H]3CC[C@H](C(=O)N[C@H](C)c4ccccn4)CC3)ccc2n1 [Example 82, (1r,4R)-4-(2-ethoxyquinoline-6-sulfonamido)-N-((R)-1-(pyridin-2-yl)ethyl)cyclohexanecarboxamide] was run?
Answer: 6.07

Question: With C[C@@H](NC(=O)[C@H]1CC[C@H](NS(=O)(=O)c2ccc3nc(OC4COC4)ccc3c2)CC1)c1ccccn1 [Example 83, (1r,4R)-4-(2-(oxetan-3-yloxy)quinoline-6-sulfonamido)-N-((R)-1-(pyridin-2-yl)ethyl)cyclohexanecarboxamide] as the compound, how does the pIC50 read?
Answer: 6.07

Question: CC(C)(C)OC(=O)N1CCN(C(=O)[C@H]2CC[C@H](NS(=O)(=O)c3cnc4ccccc4c3)CC2)[C@@H](c2ccccc2)C1 [Example 84, (S)-tert-butyl 3-phenyl-4-((1r,4S)-4-(quinoline-3-sulfonamido)cyclohexanecarbonyl)piperazine-1-carboxylate] was tested. Which pIC50 did it give?
Answer: 7.35

Question: With O=C([C@H]1CC[C@H](NS(=O)(=O)c2cnc3ccccc3c2)CC1)N1CCNC[C@@H]1c1ccccc1 [Example 85, N-((1S,4r)-4-((S)-2-phenylpiperazine-1-carbonyl)cyclohexyl)quinoline-3-sulfonamide] as the compound, how does the pIC50 read?
Answer: 6.84

Question: Cn1c(-c2ccccc2)cc2cc(S(=O)(=O)N[C@H]3CC[C@H](C(=O)N4CCN[C@H](C(F)(F)F)C4)CC3)ccc21 [Example 86, 1-methyl-2-phenyl-N-((1S,4r)-4-((S)-3-(trifluoromethyl)piperazine-1-carbonyl)cyclohexyl)-1H-indole-5-sulfonamide] was tested. Which pIC50 did it give?
Answer: 7.12

Question: With Cn1c(-c2ccccc2)cc2cc(S(=O)(=O)N[C@H]3CC[C@H](C(=O)N4CCN[C@@H](C(F)(F)F)C4)CC3)ccc21 [Example 87, 1-methyl-2-phenyl-N-((1R,4r)-4-((R)-3-(trifluoromethyl)piperazine-1-carbonyl)cyclohexyl)-1H-indole-5-sulfonamide] as the compound, how does the pIC50 read?
Answer: 7.00

Question: C[C@@H](NC(=O)[C@H]1CC[C@H](NS(=O)(=O)c2ccc3c(c2)c(C#N)cn3C)CC1)c1ccc(F)cc1 [Example 88, (1r,4R)-4-(3-cyano-1-methyl-1H-indole-5-sulfonamido)-N-((R)-1-(4-fluorophenyl)ethyl)cyclohexanecarboxamide] was tested. Which pIC50 did it give?
Answer: 7.30

Question: With Cn1cc(C#N)c2cc(S(=O)(=O)N[C@H]3CC[C@H](C(=O)N[C@@H](c4ccccc4)C(C)(C)O)CC3)ccc21 [Example 89, (1r,4S)-4-(3-cyano-1-methyl-1H-indole-5-sulfonamido)-N-((S)-2-hydroxy-2-methyl-1-phenylpropyl)cyclohexanecarboxamide] as the compound, how does the pIC50 read?
Answer: 7.70

Question: Cn1c(-c2ccccc2)cc2cc(S(=O)(=O)N[C@H]3CC[C@H](C(=O)N4CC(C(=O)O)CCC4c4ccccc4)CC3)ccc21 (stereo partly drawn) [Example 90, 1-((1r,4r)-4-(1-methyl-2-phenyl-1H-indole-5-sulfonamido)cyclohexanecarbonyl)-6-phenylpiperidine-3-carboxylic acid] was tested. Which pIC50 did it give?
Answer: 6.59

Question: Cn1c(-c2ccccc2)cc2cc(S(=O)(=O)N[C@H]3CC[C@H](C(=O)N4CC(C(=O)O)CCC4c4ccccc4)CC3)ccc21 (stereo partly drawn) [Example 91, 1-((1r,4r)-4-(1-methyl-2-phenyl-1H-indole-5-sulfonamido)cyclohexanecarbonyl)-6-phenylpiperidine-3-carboxylic acid] was tested. Which pIC50 did it give?
Answer: 7.52

Question: With Cn1c(-c2ccccc2)cc2cc(S(=O)(=O)N[C@H]3CC[C@H](C(=O)N4CC(C(=O)O)CCC4c4ccccc4)CC3)ccc21 (stereo partly drawn) [Example 92, 1-((1r,4r)-4-(1-methyl-2-phenyl-1H-indole-5-sulfonamido)cyclohexanecarbonyl)-6-phenylpiperidine-3-carboxylic acid] as the compound, how does the pIC50 read?
Answer: > 8.00

Question: With Cn1c(-c2ccccc2)cc2cc(S(=O)(=O)N[C@H]3CC[C@H](C(=O)N4CC(C(=O)O)CCC4c4ccccc4)CC3)ccc21 (stereo partly drawn) [Example 93, 1-((1r,4r)-4-(1-methyl-2-phenyl-1H-indole-5-sulfonamido)cyclohexanecarbonyl)-6-phenylpiperidine-3-carboxylic acid] as the compound, how does the pIC50 read?
Answer: 6.26

Question: How did the pIC50 turn out when Cn1c(-c2ccccc2)cc2cc(S(=O)(=O)N[C@H]3CC[C@H](C(=O)N[C@H](CC(=O)OC(C)(C)C)c4ccccc4)CC3)ccc21 [Example 94, (R)-tert-butyl 3-((1r,4R)-4-(1-methyl-2-phenyl-1H-indole-5-sulfonamido)cyclohexanecarboxamido)-3-phenylpropanoate] was run?
Answer: 7.12
